For 25 compounds, IC50 results are on record in patent US10519177B2, “Heterocyclic compounds and uses thereof” (Plexxikon Inc., priority 2013, dated 2019).

The target of one experiment is BRD4-BD12 (1-477) (Homo sapiens (Human), UniProt O60885). Description: Alphascreen binding assay BRD4-BD12. The note with it: BRD4(1 2) H4; read-out: Biochemical activity (IC50 μM) BRD4(1 2) H4. The procedure, abridged:
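First, compound was preincubated 1 h at room temperature with the His-tagged BRD4 protein (BD1 44-164 or tandem BD12 1-477) and acetylated H4 peptide. Next, donor and acceptor beads were added at 7.5 μg/ml final. After 30 min, AlphaScreen emission was recorded.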

A further experiment has as its system MV-4-11 cells. Description: Oncology cell growth assay MV-4-11 (CellTiter Glo). It counts as cell-based. As to conditions: Homo sapiens, MV4-11, 72 h; MV-4-11, 3d growth; read-out: Cell activity (IC50 μM) MV-4-11 3d-Growth. The procedure, abridged:
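MV-4-11 AML cells (MLL-AF4), 3000 per well, exposed to 8-point 1:3 compound titration from 10 μM top concentration (0.2% DMSO) for 72 h. Viability by CellTiter Glo luminescence, normalized to DMSO controls; pIC50 from four-parameter curve fit.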
(In ATP-based viability assays light output follows the ATP content of the culture.)

For another experiment, the system named is bromodomain. The experiment can be described thus: at least one of the bromodomain cell assays of Example 57. The note with it: at least one of the bromodomain cell assays described in Example 57; read-out: IC50 in at least one of the bromodomain cell assays. The class given is cell-based.

For the compound `CC(=O)Nc1ccc(-c2cn(CC3(F)CCCCC3)c3cc(-c4c(C)noc4C)cnc23)cc1` [P-0496, N-[4-[6-(3,5-dimethylisoxazol-4-yl)-1-[(1-fluorocyclohexyl)methyl]pyrrolo[3,2-b]pyridin-3-yl]phenyl]acetamide], the 50% inhibitory concentration (IC50) (commonly the concentration that inhibits the measured activity by half) at BRD4-BD12 (1-477) is less than 1 µM; with MV-4-11 cells, less than 1 µM; in the experiment with bromodomain, less than 10000 nM.

Regarding `CONC(=O)c1ccc(-c2cn(CC3(F)CCCCC3)c3cc(-c4c(C)noc4C)cnc23)cc1` [P-0497, 4-[6-(3,5-dimethylisoxazol-4-yl)-1-[(1-fluorocyclohexyl)methyl]pyrrolo[3,2-b]pyridin-3-yl]-N-methoxy-benzamide], the IC50 at BRD4-BD12 (1-477) was less than 1 µM; in the experiment with MV-4-11 cells, less than 1 µM; with bromodomain, less than 10000 nM.

Regarding `Cc1noc(C)c1-c1cnc2c(-c3ccc4[nH]c(=O)[nH]c4c3)cn(CC3(F)CCCCC3)c2c1` [P-0498, 5-[6-(3,5-dimethylisoxazol-4-yl)-1-[(1-fluorocyclohexyl)methyl]pyrrolo[3,2-b]pyridin-3-yl]-1,3-dihydrobenzimidazol-2-one], the 50% inhibitory concentration (IC50) at BRD4-BD12 (1-477) is less than 1 µM; in the experiment with MV-4-11 cells it was less than 1 µM; with bromodomain, less than 10000 nM.

With `Cc1noc(C)c1-c1cnc2c(-c3ccc4[nH]ncc4c3)cn(CC3(F)CCCCC3)c2c1` [P-0499, 4-[1-[(1-fluorocyclohexyl)methyl]-3-(1H-indazol-5-yl)pyrrolo[3,2-b]pyridin-6-yl]-3,5-dimethyl-isoxazole], the IC50 on BRD4-BD12 (1-477) is less than 1 µM; in the experiment on MV-4-11 cells, less than 1 µM; with bromodomain, less than 10000 nM.

In the case of `Cc1noc(C)c1-c1cnc2c(-c3ccc(O)c(F)c3)cn(CC3(F)CCCCC3)c2c1` [P-0500, 4-[6-(3,5-dimethylisoxazol-4-yl)-1-[(1-fluorocyclohexyl)methyl]pyrrolo[3,2-b]pyridin-3-yl]-2-fluoro-phenol], the IC50 was less than 1 µM at BRD4-BD12 (1-477), less than 1 µM with MV-4-11 cells and less than 10000 nM in the experiment with bromodomain.

Consider `Cc1noc(C)c1-c1cnc2c(-c3ccccc3C(=O)O)cn(CC3(F)CCCCC3)c2c1` [P-0501, 2-[6-(3,5-dimethylisoxazol-4-yl)-1-[(1-fluorocyclohexyl)methyl]pyrrolo[3,2-b]pyridin-3-yl]benzoic acid], for which the 50% inhibitory concentration (IC50) at BRD4-BD12 (1-477) was less than 1 µM; with MV-4-11 cells, less than 1 µM; with bromodomain, less than 10000 nM.

For the compound `Cc1noc(C)c1-c1cnc2c(-c3ccc(C(=O)O)c(O)c3)cn(CC3(F)CCCCC3)c2c1` [P-0502, 4-[6-(3,5-dimethylisoxazol-4-yl)-1-[(1-fluorocyclohexyl)methyl]pyrrolo[3,2-b]pyridin-3-yl]-2-hydroxy-benzoic acid], the IC50 at BRD4-BD12 (1-477) is less than 1 µM; with MV-4-11 cells it was less than 1 µM; in the experiment on bromodomain, less than 10000 nM.

As for `Cc1noc(C)c1-c1cnc2c(-c3ccc(OCC(=O)O)cc3)cn(CC3(F)CCCCC3)c2c1` [P-0503, 2-[4-[6-(3,5-dimethylisoxazol-4-yl)-1-[(1-fluorocyclohexyl)methyl]pyrrolo[3,2-b]pyridin-3-yl]phenoxy]acetic acid], the IC50 on BRD4-BD12 (1-477) was less than 1 µM; with MV-4-11 cells, less than 1 µM; in the experiment with bromodomain it was less than 10000 nM.

Consider `COc1cc(-c2cn(CC3(F)CCCCC3)c3cc(-c4c(C)noc4C)cnc23)ccc1C(=O)O` [P-0504, 4-[6-(3,5-dimethylisoxazol-4-yl)-1-[(1-fluorocyclohexyl)methyl]pyrrolo[3,2-b]pyridin-3-yl]-2-methoxy-benzoic acid], for which the half-maximal inhibitory concentration (IC50) was less than 1 µM on BRD4-BD12 (1-477), less than 1 µM with MV-4-11 cells and less than 10000 nM with bromodomain.

As for `Cc1noc(C)c1-c1cnc2c(-c3ccc4c(c3)CNC4=O)cn(CC3(F)CCCCC3)c2c1` [P-0505, 5-[6-(3,5-dimethylisoxazol-4-yl)-1-[(1-fluorocyclohexyl)methyl]pyrrolo[3,2-b]pyridin-3-yl]isoindolin-1-one], the results for the half-inhibitory concentration (IC50) at BRD4-BD12 (1-477), in the experiment on MV-4-11 cells and in the experiment on bromodomain were less than 1 µM, less than 1 µM and less than 10000 nM, respectively.

As to `Cc1cc(-c2cn(CC3(F)CCCCC3)c3cc(-c4c(C)noc4C)cnc23)ccc1C(=O)O` [P-0506, 4-[6-(3,5-dimethylisoxazol-4-yl)-1-[(1-fluorocyclohexyl)methyl]pyrrolo[3,2-b]pyridin-3-yl]-2-methyl-benzoic acid], the half-maximal inhibitory concentration (IC50) on BRD4-BD12 (1-477) is less than 1 µM; in the experiment with MV-4-11 cells, less than 1 µM; in the experiment on bromodomain, less than 10000 nM.

Take `Cc1noc(C)c1-c1cnc2c(-c3ccc(C4(C#N)CC4)cc3)cn(CC3CCC(F)(F)CC3)c2c1` [P-0507, 1-[4-[1-[(4,4-difluorocyclohexyl)methyl]-6-(3,5-dimethylisoxazol-4-yl)pyrrolo[3,2-b]pyridin-3-yl]phenyl]cyclopropanecarbonitrile]: the IC50 at BRD4-BD12 (1-477) was less than 1 µM; in the experiment on MV-4-11 cells, less than 1 µM; in the experiment with bromodomain, less than 10000 nM.

`COC(=O)c1ccc(-c2cn([C@H](C)c3ccccn3)c3cc(-c4c(C)noc4C)cnc23)cc1` [P-0508, methyl 4-[6-(3,5-dimethylisoxazol-4-yl)-1-[(1R)-1-(2-pyridyl)ethyl]pyrrolo[3,2-b]pyridin-3-yl]benzoate]: the IC50 on BRD4-BD12 (1-477) is less than 1 µM; in the experiment on MV-4-11 cells it was less than 1 µM; in the experiment with bromodomain it was less than 10000 nM.

Turning to `COC(=O)c1ccc(-c2cn([C@@H](C)c3ccccn3)c3cc(-c4c(C)noc4C)cnc23)cc1` [P-0509, methyl 4-[6-(3,5-dimethylisoxazol-4-yl)-1-[(1S)-1-(2-pyridyl)ethyl]pyrrolo[3,2-b]pyridin-3-yl]benzoate], the IC50 at BRD4-BD12 (1-477) was less than 1 µM; in the experiment with MV-4-11 cells, less than 1 µM; with bromodomain, less than 10000 nM.

For the compound `Cc1noc(C)c1-c1cnc2c(-c3cnn(CC(F)(F)F)c3)cn([C@@H](C)c3ccccn3)c2c1` [P-0512, 3,5-dimethyl-4-[1-[(1S)-1-(2-pyridyl)ethyl]-3-[1-(2,2,2-trifluoroethyl)pyrazol-4-yl]pyrrolo[3,2-b]pyridin-6-yl]isoxazole], the IC50 on BRD4-BD12 (1-477) was less than 1 µM; in the experiment with MV-4-11 cells, less than 1 µM; with bromodomain, less than 10000 nM.

With `Cc1noc(C)c1-c1cnc2c(-c3cnn(CC(F)(F)F)c3)cn([C@H](C)c3ccccn3)c2c1` [P-0513, 3,5-dimethyl-4-[1-[(1R)-1-(2-pyridyl)ethyl]-3-[1-(2,2,2-trifluoroethyl)pyrazol-4-yl]pyrrolo[3,2-b]pyridin-6-yl]isoxazole], the IC50 at BRD4-BD12 (1-477) is less than 1 µM; in the experiment on MV-4-11 cells, less than 1 µM; in the experiment with bromodomain it was less than 10000 nM.

On to `Cc1noc(C)c1-c1cnc2c(-c3cnn(C(F)F)c3)cn([C@@H](C)c3ccccn3)c2c1` [P-0514, 4-[3-[1-(difluoromethyl)pyrazol-4-yl]-1-[(1S)-1-(2-pyridyl)ethyl]pyrrolo[3,2-b]pyridin-6-yl]-3,5-dimethyl-isoxazole], for which the concentration for half-maximal inhibition (IC50) was less than 1 µM on BRD4-BD12 (1-477), less than 1 µM in the experiment on MV-4-11 cells and less than 10000 nM in the experiment with bromodomain.

As to `Cc1noc(C)c1-c1cnc2c(-c3cnn(C(F)F)c3)cn([C@H](C)c3ccccn3)c2c1` [P-0515, 4-[3-[1-(difluoromethyl)pyrazol-4-yl]-1-[(1R)-1-(2-pyridyl)ethyl]pyrrolo[3,2-b]pyridin-6-yl]-3,5-dimethyl-isoxazole], the results for the half-maximal inhibitory concentration (IC50) at BRD4-BD12 (1-477), in the experiment with MV-4-11 cells and in the experiment with bromodomain were less than 1 µM, less than 1 µM and less than 10000 nM, respectively.

For the compound `Cc1noc(C)c1-c1cnc2c(-c3cnn(C)c3)cn([C@@H](C)c3ccccn3)c2c1` [P-0516, 3,5-dimethyl-4-[3-(1-methylpyrazol-4-yl)-1-[(1S)-1-(2-pyridyl)ethyl]pyrrolo[3,2-b]pyridin-6-yl]isoxazole], the IC50 is less than 1 µM on BRD4-BD12 (1-477), less than 1 µM in the experiment with MV-4-11 cells and less than 10000 nM with bromodomain.

For the compound `CCn1cc(-c2cnc3ccn(CC4CCC(F)(F)CC4)c3c2)ccc1=O` [P-0517, 5-[1-[(4,4-difluorocyclohexyl)methyl]pyrrolo[3,2-b]pyridin-6-yl]-1-ethyl-pyridin-2-one], the values for the IC50 on BRD4-BD12 (1-477), in the experiment with MV-4-11 cells and in the experiment with bromodomain were 1 to 10 µM, 1 to 10 µM and less than 10000 nM, respectively.

As for `CC(C)n1cc(-c2cnc3ccn(CC4CCC(F)(F)CC4)c3c2)ccc1=O` [P-0518, 5-[1-[(4,4-difluorocyclohexyl)methyl]pyrrolo[3,2-b]pyridin-6-yl]-1-isopropyl-pyridin-2-one], the results for the IC50 at BRD4-BD12 (1-477), with MV-4-11 cells and in the experiment with bromodomain were 1 to 10 µM, 10 to 200 µM and less than 10000 nM, respectively.

In the case of `Cc1noc(C)c1-c1cnc2c(-c3cnn(C)c3)cn([C@H](C)c3ccccn3)c2c1` [P-0519, 3,5-dimethyl-4-[3-(1-methylpyrazol-4-yl)-1-[(1R)-1-(2-pyridyl)ethyl]pyrrolo[3,2-b]pyridin-6-yl]isoxazole], the IC50 at BRD4-BD12 (1-477) is less than 1 µM; in the experiment with MV-4-11 cells it was less than 1 µM; with bromodomain, less than 10000 nM.

With `Cc1noc(C)c1-c1cnc2c(-c3ccc(N)nc3)cn(CC3(F)CCCCC3)c2c1` [P-0520, 5-[6-(3,5-dimethylisoxazol-4-yl)-1-[(1-fluorocyclohexyl)methyl]pyrrolo[3,2-b]pyridin-3-yl]pyridin-2-amine], the 50% inhibitory concentration (IC50) on BRD4-BD12 (1-477) was less than 1 µM; in the experiment on MV-4-11 cells it was less than 1 µM; in the experiment with bromodomain, less than 10000 nM.

Consider `Cc1noc(C)c1-c1cnc2c(-c3ccc(NC(N)=O)cc3)cn(CC3(F)CCCCC3)c2c1` [P-0521, [4-[6-(3,5-dimethylisoxazol-4-yl)-1-[(1-fluorocyclohexyl)methyl]pyrrolo[3,2-b]pyridin-3-yl]phenyl]urea], for which the concentration for half-maximal inhibition (IC50) was less than 1 µM on BRD4-BD12 (1-477), less than 1 µM in the experiment with MV-4-11 cells and less than 10000 nM with bromodomain.

As to `CNC(=O)Nc1ccc(-c2cn(CC3(F)CCCCC3)c3cc(-c4c(C)noc4C)cnc23)cc1` [P-0522, 1-[4-[6-(3,5-dimethylisoxazol-4-yl)-1-[(1-fluorocyclohexyl)methyl]pyrrolo[3,2-b]pyridin-3-yl]phenyl]-3-methyl-urea], the IC50 on BRD4-BD12 (1-477) is less than 1 µM; in the experiment with MV-4-11 cells it was less than 1 µM; with bromodomain, less than 10000 nM.
